Patent publication US20260256738A1, “METHODS OF TREATING CANCER WITH A RAS MUTATION” (Immuneering Corporation, priority 2023, published 2026)
Read-outs that look alike come from different tables or passages of the source.

Tests used:
[1] = Human plasma pharmacokinetics of approved MEK inhibitors; type: in vivo; details: human dosing cycle
[2] = cited from earlier work
[3] = Plasma Stability (% remaining @2 hour); type: in vitro ADME; details: CD-1 Mouse; 2 μM
[4] = Plasma Stability (% remaining @2 hour); type: in vitro ADME; details: SD Rat; 2 μM
[5] = Plasma Stability (% remaining @2 hour); type: in vitro ADME; details: Human; 2 μM
[6] = Plasma Stability (% remaining @2 hour); type: in vitro ADME; details: Beagle Dog; 2 μM
CYP450 2C19 = CYP450 2C19 (Homo sapiens, UniProt P33261); assay: CYP450 Panel; type: in vitro ADME; details: 10 μM; substrate mephenytoin; in % (unit assumed)
CYP450 2C8 = target: T1, CYP450 2C8 (Homo sapiens, UniProt P10632); assay: CYP450 Panel; type: in vitro ADME; details: 10 μM; substrate amodiaquine
T1 sequence (P10632 1-490): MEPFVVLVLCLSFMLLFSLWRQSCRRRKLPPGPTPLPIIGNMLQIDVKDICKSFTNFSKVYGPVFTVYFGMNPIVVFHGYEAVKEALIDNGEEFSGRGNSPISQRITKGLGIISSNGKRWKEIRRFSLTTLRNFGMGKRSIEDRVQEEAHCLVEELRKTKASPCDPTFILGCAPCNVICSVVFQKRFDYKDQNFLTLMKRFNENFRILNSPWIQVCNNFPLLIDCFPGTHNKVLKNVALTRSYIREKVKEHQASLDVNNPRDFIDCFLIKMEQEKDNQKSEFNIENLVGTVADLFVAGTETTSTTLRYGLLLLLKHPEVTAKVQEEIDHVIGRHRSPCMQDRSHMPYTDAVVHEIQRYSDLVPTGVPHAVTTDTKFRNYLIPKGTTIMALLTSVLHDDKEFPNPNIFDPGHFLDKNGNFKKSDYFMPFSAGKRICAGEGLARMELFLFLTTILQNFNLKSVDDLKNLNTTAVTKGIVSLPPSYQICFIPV

CYP450 2D6 [7] = target: T2, CYP450 2D6 (Homo sapiens, UniProt P10635)
Caco-2 [8] = assay: Caco-2 permeability; details: 10 μM, 2 hrs
[9] = Microsome Stability (% remaining @1 hour); details: CD-1 Mouse; 2 μM
[10] = Tissue pharmacokinetics in Colon-26 tumor bearing mice, 2-hour post dose; type: in vivo; details: single dose 100 mg/kg p.o.
Procedure: Female mice (either athymic BALC/c nude, or BALB/c mice) were inoculated with a single subcutaneous injection of 0.2 ml of mouse Colon-26 cell suspension (1×10^5 cells per animal) in the inguinal region. Colon26 (C26) tumor bearing mice received a single dose (3 mice/treatment) of vehicle (10% DMSO/90% [20% SBE-R-CD in saline], pH 5) containing compounds at 100 mg/kg by gavage (p.o.) and 2-hour post dose humanely euthanized.
Blood was obtained through cardiac puncture into K+EDTA tubes, mixed by inversion and centrifuged to obtain the plasma. Tissues were excised, cleaned of surrounding tissues. All samples immediately snap frozen in liquid N2 prior to LC-MS/MS analysis (using Waters HSS T3 2.1×50 mm (1.8 um) LC column, and an API-6500 Electrospray MS unit).

CYP450 1A2 = target: T3, CYP450 1A2 (Homo sapiens, UniProt P05177); assay: CYP450 Panel; details: 10 μM; substrate phenacetin; in % (unit assumed)
T3 sequence (P05177 1-516): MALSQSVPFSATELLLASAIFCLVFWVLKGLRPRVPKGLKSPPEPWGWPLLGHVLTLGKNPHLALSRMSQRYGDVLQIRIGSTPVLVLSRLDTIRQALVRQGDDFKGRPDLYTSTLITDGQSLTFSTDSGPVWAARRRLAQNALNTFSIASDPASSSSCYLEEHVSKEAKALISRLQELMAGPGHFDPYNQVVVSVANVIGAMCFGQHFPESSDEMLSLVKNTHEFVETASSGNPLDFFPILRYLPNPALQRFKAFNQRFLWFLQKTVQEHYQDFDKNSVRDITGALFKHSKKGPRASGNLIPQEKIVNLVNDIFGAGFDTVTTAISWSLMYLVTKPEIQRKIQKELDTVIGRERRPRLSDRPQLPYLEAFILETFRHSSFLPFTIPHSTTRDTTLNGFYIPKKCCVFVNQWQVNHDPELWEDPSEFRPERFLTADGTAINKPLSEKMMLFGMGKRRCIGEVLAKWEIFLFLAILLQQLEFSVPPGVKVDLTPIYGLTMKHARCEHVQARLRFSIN

[11] = eLogD (lipophilicity; pH=7.4); type: physicochemical
Procedure: Test compounds were dissolved in DMSO at a concentration of 10 mM and further diluted with methanol:water 1:1. Samples were analyzed using gradient HPLC with three different isocratic mobile phases of 0.25% octanol in methanol (60, 65 and 70%) and 20 mM MOPS buffer (pH 7.4) with decylamine. If needed, (for low E log Doct compounds) the isocratic mobile phases were adjusted to e.g. 40, 45 and 50% methanol. Peaks were detected using a diode array at absorbance 220-320 nm.
Capacity factors data (k′_(tr−_t0)/t0) obtained at various amounts of methanol were extrapolated to 0% methanol and k′w values are determined using a linear procedure. E log Doct (7.4) is calculated using a series of reference standards with known Log D values. Each experiment was performed in triplicate.

[12] = Microsome Stability (% remaining @1 hour); type: in vitro ADME; details: Beagle Dog; 2 μM
[13] = Microsome Stability (% remaining @1 hour); type: in vitro ADME; details: SD Rat; 2 μM
CYP450 2D6 [14] = target: T2, CYP450 2D6; assay: CYP450 Panel; details: 10 μM; substrate dextromethorphan; in % (unit assumed)
[15] = Microsome Stability (% remaining @1 hour); type: in vitro ADME; details: Human; 2 μM
CYP450 3A4 = CYP450 3A4 (Homo sapiens, UniProt P08684); assay: CYP450 Panel; type: in vitro ADME; details: 10 μM; for CYP450 Panel 3A4 (midazolam): substrate midazolam; for CYP450 Panel 3A4 (testosterone): substrate testosterone
hERG Channel = hERG Channel (Homo sapiens, UniProt Q12809); assay: biochemical
CYP450 2B6 = target: T4, CYP450 2B6 (Homo sapiens, UniProt P20813); assay: CYP450 Panel; type: in vitro ADME; details: 10 μM; substrate bupropion
T4 sequence (P20813 1-491): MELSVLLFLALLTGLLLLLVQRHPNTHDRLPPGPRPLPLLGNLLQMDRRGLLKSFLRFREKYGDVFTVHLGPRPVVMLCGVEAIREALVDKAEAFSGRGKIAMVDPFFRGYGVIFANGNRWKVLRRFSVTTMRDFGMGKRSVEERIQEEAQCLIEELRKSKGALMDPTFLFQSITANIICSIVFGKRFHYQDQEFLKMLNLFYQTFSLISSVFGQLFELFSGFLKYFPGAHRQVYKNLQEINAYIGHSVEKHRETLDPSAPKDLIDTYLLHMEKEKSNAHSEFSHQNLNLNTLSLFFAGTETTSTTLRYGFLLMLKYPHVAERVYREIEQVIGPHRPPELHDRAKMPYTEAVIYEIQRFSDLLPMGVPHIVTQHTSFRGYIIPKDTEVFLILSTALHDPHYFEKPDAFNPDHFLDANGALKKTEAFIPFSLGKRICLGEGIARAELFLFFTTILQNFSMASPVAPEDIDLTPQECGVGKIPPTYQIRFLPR

CYP450 2C9 = CYP450 2C9 (Homo sapiens, UniProt P11712); assay: CYP450 Panel; type: in vitro ADME; details: 10 μM; substrate Diclofenac; in % (unit assumed)
Caco-2 permeability = details: human
pERK in A549 (KRAS-G12S) = assay: Cell-based pERK dose response / phospho-ERK screen in A549; design: species or system Human; details: A549 (KRAS G12S), 10 μM for 2 hours
Procedure: Materials and Methods: A549 or A375 cells were seeded in 6-well plates at an appropriate seeding density on day 0. On day 2 or 3, after checking the health and confluency of cells, the media was aspirated and replaced with 1 mL media containing a predetermined concentration of compound and incubated for 2 hours. After 2 hours, the media was aspirated, and the cells washed 2 times with cold PBS. Cells were lysed on ice, with 50 μL 1× CST lysis buffer+1 mM PMSF for 5 minutes. After 5 minutes, cells were removed using a scraper and transferred to cold 1.5 mL tubes, and centrifuged for 10 min, 4° C., 14,000×g. Supernatant was gently removed and snap frozen in liquid nitrogen. Protein concentration of the lysate was determined using Bradford Reagent (analyzed using SpectraMax M2E) and diluted to 1 mg/mL or pERK or 1.5 mg/mL for pMEK analysis. […] All dilutions were in Milk-free antibody diluent.

Caco-2 [16] = system: Caco-2

T2 sequence (P10635 whole entry): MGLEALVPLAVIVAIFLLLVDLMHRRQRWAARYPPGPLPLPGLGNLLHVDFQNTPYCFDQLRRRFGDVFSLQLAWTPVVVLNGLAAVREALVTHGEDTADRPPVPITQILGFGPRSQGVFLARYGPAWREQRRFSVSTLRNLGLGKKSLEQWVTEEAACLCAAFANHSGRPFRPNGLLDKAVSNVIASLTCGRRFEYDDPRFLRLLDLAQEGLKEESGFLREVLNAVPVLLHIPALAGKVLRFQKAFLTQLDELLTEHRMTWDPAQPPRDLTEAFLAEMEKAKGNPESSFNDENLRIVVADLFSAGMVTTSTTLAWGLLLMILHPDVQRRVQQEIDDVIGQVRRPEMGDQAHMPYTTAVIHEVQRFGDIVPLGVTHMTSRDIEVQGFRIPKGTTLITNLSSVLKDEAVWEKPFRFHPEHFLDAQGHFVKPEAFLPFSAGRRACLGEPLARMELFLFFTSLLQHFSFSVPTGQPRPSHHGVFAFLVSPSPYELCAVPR
Chain of CYP450 3A4 (P08684 whole entry): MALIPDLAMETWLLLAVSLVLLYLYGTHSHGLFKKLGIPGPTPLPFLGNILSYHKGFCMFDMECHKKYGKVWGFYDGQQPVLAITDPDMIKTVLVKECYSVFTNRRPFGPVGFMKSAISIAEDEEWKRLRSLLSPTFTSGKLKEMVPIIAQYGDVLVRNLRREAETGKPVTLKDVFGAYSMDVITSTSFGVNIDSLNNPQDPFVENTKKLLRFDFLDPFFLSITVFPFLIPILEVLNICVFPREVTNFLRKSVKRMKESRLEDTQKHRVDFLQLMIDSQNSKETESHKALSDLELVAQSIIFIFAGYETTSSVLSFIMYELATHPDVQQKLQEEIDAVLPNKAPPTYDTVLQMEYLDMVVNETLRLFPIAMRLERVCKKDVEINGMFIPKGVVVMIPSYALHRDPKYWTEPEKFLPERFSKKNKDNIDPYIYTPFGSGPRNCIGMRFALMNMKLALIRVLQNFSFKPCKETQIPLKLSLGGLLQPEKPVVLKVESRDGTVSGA
Chain of CYP450 2C19 (P33261 whole entry): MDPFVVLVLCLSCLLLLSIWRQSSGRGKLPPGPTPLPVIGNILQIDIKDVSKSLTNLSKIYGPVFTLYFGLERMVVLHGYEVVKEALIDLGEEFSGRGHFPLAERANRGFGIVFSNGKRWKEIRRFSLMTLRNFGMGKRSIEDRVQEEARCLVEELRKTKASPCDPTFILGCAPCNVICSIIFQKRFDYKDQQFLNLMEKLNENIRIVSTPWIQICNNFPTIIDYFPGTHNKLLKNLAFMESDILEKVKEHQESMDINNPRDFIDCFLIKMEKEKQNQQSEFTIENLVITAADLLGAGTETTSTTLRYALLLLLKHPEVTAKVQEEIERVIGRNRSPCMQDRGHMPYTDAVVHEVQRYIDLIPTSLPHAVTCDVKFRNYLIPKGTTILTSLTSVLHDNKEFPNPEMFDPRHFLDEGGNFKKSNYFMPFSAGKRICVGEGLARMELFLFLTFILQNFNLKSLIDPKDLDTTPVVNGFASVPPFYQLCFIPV
Chain of CYP450 2C9 (P11712 whole entry): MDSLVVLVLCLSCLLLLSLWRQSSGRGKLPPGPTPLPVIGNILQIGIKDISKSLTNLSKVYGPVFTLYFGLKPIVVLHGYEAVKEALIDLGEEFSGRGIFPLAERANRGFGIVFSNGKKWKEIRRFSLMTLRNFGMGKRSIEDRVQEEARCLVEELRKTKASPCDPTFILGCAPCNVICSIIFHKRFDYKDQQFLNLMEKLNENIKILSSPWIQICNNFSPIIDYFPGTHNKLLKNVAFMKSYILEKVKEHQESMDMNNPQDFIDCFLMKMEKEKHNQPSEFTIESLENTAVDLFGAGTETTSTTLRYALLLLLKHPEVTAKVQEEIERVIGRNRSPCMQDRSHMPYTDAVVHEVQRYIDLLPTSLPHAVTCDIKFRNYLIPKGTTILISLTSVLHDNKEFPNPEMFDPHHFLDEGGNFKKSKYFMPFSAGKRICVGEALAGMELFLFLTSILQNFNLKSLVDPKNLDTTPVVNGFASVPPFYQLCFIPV
Chain of hERG Channel (Q12809 whole entry): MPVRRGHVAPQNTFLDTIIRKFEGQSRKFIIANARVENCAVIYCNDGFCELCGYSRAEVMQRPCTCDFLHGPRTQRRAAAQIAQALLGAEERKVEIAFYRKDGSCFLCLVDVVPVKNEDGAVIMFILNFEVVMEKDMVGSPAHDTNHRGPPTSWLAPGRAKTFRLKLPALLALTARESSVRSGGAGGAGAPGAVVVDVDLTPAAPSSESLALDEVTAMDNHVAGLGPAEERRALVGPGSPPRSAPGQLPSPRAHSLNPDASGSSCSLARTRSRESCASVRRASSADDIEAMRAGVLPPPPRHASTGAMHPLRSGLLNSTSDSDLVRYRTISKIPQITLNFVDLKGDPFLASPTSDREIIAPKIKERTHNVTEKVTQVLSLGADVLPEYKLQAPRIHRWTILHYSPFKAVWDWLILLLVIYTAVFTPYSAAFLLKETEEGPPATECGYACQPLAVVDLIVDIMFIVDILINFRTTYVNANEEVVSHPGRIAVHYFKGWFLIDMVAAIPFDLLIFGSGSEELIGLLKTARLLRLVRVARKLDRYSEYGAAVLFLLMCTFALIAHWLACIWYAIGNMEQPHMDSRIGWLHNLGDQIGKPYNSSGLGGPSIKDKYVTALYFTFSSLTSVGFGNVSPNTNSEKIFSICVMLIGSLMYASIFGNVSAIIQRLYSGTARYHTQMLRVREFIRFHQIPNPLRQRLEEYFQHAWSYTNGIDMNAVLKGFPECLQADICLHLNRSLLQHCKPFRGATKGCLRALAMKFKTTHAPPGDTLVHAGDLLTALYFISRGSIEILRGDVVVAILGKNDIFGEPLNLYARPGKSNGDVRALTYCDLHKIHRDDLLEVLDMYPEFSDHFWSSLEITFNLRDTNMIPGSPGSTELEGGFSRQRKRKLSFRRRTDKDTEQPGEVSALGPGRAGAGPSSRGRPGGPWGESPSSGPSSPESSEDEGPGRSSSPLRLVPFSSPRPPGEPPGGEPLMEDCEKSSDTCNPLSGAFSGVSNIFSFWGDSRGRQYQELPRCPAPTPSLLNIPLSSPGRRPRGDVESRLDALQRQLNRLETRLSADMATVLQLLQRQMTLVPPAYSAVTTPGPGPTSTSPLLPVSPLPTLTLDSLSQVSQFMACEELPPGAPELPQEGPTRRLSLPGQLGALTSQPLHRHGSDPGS

SMILES: Cn1cnc2c(F)c(Nc3ccc(Br)cc3F)c(C(=O)NOCCO)cc21 [Binimetinib]
- half-lives per (BID) cycle [1]: ≤ 3.4 half-lives
- half-life ([2]; in vivo): 3.5 h

SMILES: CC[C@H](C)C(=O)O[C@H]1C[C@@H](C)C=C2C=C[C@H](C)[C@H](CC[C@@H]3C[C@@H](O)CC(=O)O3)[C@H]21 [Lovastatin]
- Plasma stability, % Remaining @2 hour [3]: 0.6%
- Plasma stability, % Remaining @2 hour [4]: 0.6%
- Plasma stability, % Remaining @2 hour [5]: 81.8%
- Plasma stability, % Remaining @2 hour [6]: 94.1%

SMILES: COc1ccc2[nH]c([S+]([O-])Cc3ncc(C)c(OC)c3C)nc2c1 (stereo not drawn) [Omeprazole]
- CYP450 Panel 2C19 (CYP450 2C19): 61.6

SMILES: CC(C)[N+](C)(CCOC(=O)C1c2ccccc2Oc2ccccc21)C(C)C [Propantheline]
- Plasma stability, % Remaining @2 hour [3]: 27.1%
- Plasma stability, % Remaining @2 hour [4]: 92.6%
- Plasma stability, % Remaining @2 hour [5]: 5.7%
- Plasma stability, % Remaining @2 hour [6]: 58.4%

SMILES: O=c1c(O)c(-c2ccc(O)c(O)c2)oc2cc(O)cc(O)c12 [Quercetin]
- CYP450 Panel 2C8 (CYP450 2C8): 93.1%

SMILES: C=C[C@H]1C[N@@]2CC[C@H]1C[C@@H]2[C@@H](O)c1ccnc2ccc(OC)cc12 [Quinidine]
- CYP450 Panel 2D6 (CYP450 2D6 [7]): 99.7

SMILES: CNC(=C[N+](=O)[O-])NCCSCc1ccc(CN(C)C)o1 [Ranitidine]
- A − B Permeability Ranking (Caco-2 [8]): Low

SMILES: CNS(=O)(=O)Nc1nccc(Cc2c(C)c3ccc(Oc4ncccn4)cc3oc2=O)c1F [Reference 2]
- Microsome stability, % Remaining @1 hour [9]: 96.0%
- Liver concentration [10]: 1990 ng/g
- Muscle concentration [10]: 550 ng/g
- Plasma concentration [10]: 5670 ng/mL
- Tumor concentration [10]: 819 ng/g
- CYP450 Panel 1A2 (CYP450 1A2): 0.8
- Plasma stability, % Remaining @2 hour [3]: 92.9%
- eLogD (lipophilicity; pH = 7.4) [11]: 3.6
- Microsome stability, % Remaining @1 hour [12]: 111.6%
- Microsome stability, % Remaining @1 hour [13]: 102.0%
- Plasma stability, % Remaining @2 hour [4]: 99.8%
- CYP450 Panel 2D6 (CYP450 2D6 [14]): 3.4
- CYP450 Panel 2C19 (CYP450 2C19): −0.9
- A − B Permeability Ranking (Caco-2 [8]): High
- Plasma stability, % Remaining @2 hour [5]: 91.1%
- Microsome stability, % Remaining @1 hour [15]: 107.1%
- Plasma stability, % Remaining @2 hour [6]: 99.8%
- CYP450 Panel 3A4 (midazolam) (CYP450 3A4): 16.6%
- CYP450 Panel 3A4 (testosterone) (CYP450 3A4): 15.7%

SMILES: CNS(=O)(=O)Nc1cccc(Cc2c(C)c3ccc(OC(=O)N(C)C)cc3oc2=O)c1F [Reference 7]
- Microsome stability, % Remaining @1 hour [9]: 29.6%
- IC50 (hERG Channel): 28.6 µM
- CYP450 Panel 2B6 (CYP450 2B6): 28.5%
- CYP450 Panel 1A2 (CYP450 1A2): 0.3
- Plasma stability, % Remaining @2 hour [3]: 56.5%
- Microsome stability, % Remaining @1 hour [12]: 57.0%
- Microsome stability, % Remaining @1 hour [13]: 2.7%
- CYP450 Panel 2C8 (CYP450 2C8): 14.4%
- Plasma stability, % Remaining @2 hour [4]: 77.3%
- CYP450 Panel 2D6 (CYP450 2D6 [14]): −7.4
- CYP450 Panel 2C9 (CYP450 2C9): 33.8
- CYP450 Panel 2C19 (CYP450 2C19): 11.6
- Papp A→B at 2 h, 10 μM (Caco-2 permeability): 14.4 ×10⁻⁶ cm/s
- Papp B→A at 2 h, 10 μM (Caco-2 permeability): 10 ×10⁻⁶ cm/s
- efflux ratio at 2 h, 10 μM (Caco-2 permeability): 0.695
- A − B Permeability Ranking (Caco-2 [8]): High
- Plasma stability, % Remaining @2 hour [5]: 88.1%
- Microsome stability, % Remaining @1 hour [15]: 61.1%
- pERK: total ERK (% relative to vehicle) (pERK in A549 (KRAS-G12S); Table 8A): 0.53%
- pERK: total ERK (% relative to vehicle) (pERK in A549 (KRAS-G12S); Table 8B): 3.33%
- Plasma stability, % Remaining @2 hour [6]: 99.8%
- CYP450 Panel 3A4 (midazolam) (CYP450 3A4): 29.9%
- CYP450 Panel 3A4 (testosterone) (CYP450 3A4): 59.7%

SMILES: Nc1ccc(S(=O)(=O)Nc2ccnn2-c2ccccc2)cc1 [Sulfaphenazole]
- CYP450 Panel 2C9 (CYP450 2C9): 101.2

SMILES: CC(=O)CC(c1ccccc1)c1c(O)c2ccccc2oc1=O (stereo not drawn) [Warfarin]
- A − B Permeability Ranking (Caco-2 [16]): High

SMILES: O=C(c1ccc(F)c(F)c1Nc1ccc(I)cc1F)N1CC(O)([C@@H]2CCCCN2)C1 [cobimetinib]
- half-lives per (BID) cycle [1]: ≤ 0.55 half-lives
- Tmax ([2]; human): 2.4 h
- human plasma half-life ([2]; human): 44 h

SMILES: CC(=O)Nc1cccc(-n2c(=O)n(C3CC3)c(=O)c3c(Nc4ccc(I)cc4F)n(C)c(=O)c(C)c32)c1 [trametinib]
- half-lives per (BID) cycle [1]: ≤ 0.25 half-lives
- human plasma half-life ([2]; human): 96 h
